Data reported in patent publication US6552054B1, “Chromone derivatives, process for the preparation of the same and uses thereof” (Takeda Chemical Industries, Ltd., priority 1999, dated 2003).

Tested on: stromal cells prepared from the femur bone marrow of a normal rat
Assay: Osteogenesis promoting effect: alkaline phosphatase activity in cultured bone marrow stromal cells
Assay type: cell-based, rat (Sprague-Dawley)
Settings: test compound 10^−5 M added from 2nd day of culture, cultured additional 5 days, mean ± S.E. (n = 4)
Protocol: Osteogenesis promoting effect:
Using the stromal cells prepared from the femur bone marrow of a normal rat, an alkaline phosphatase activity was measured as an index of osteogenesis. Briefly, according to the method of Maniatopoulos et al. [Cell Tissue Research, volume 254, p.317 ([…])], the stromal cells were prepared from the femur bone of a Sprague-Dawley male rat, 7 weeks of age, and cultured in an α-MEM (minimum essential medium) solution containing dexamethasone (10^−7M) and β-glycerophosphoric acid (10^−2M) in order to generate calcified bony tissue. One week later, the confluent primary cells were treated with 0.25% trypsin-0.25% EDTA solution, recovered, and subclutured on a culture plate at a cell density of […], (cultured day 0). From the 2nd day of the culture, a test compound (10^−5M) was added to the above culture medium, and cultured for an additional 5 days. The cells were washed with a phosphate buffer, and after addition of 0.2% Nonidet P-40, they were homogenized and centrifuged at 3000 rpm for 10 minutes. The supernatant was measured for an alkaline phosphatase activity according to the method of Lowry et al. [Journal of Biological Chemistry, volume 207, p.19 (1954)]. Tables 1 and 2 show the measured values in terms of mean±standard error (SE). Statistical analysis was performed by means of the Student's t-test.

[1] = Table 1, control (no addition) 0.175 ± 0.009
[2] = Table 2, control (no addition) 0.180 ± 0.008

## O=C1NC(=O)C(Cc2ccc(NC(=O)c3cc(=O)c4ccccc4o3)cc2)S1 (centres unmarked) [Example no. 1, N-[4-[(2,4-dioxo-1,3-thiazolidin-5-yl)methyl]phenyl]-4-oxo-4H-1-benzopyran-2-carboxamide]
[1]
  Alkaline phosphatase activity (A405): 0.564 ± 0.041 A405

## O=C1NC(=O)C(Cc2ccc(NC(=O)c3cc(=O)c4c(O)cc(O)cc4o3)cc2)S1 (centres unmarked) [Example no. 18]
[2]
  Alkaline phosphatase activity (A405): 0.720 ± 0.037 A405

## O=C1NC(=O)C(Cc2ccc(NC(=O)c3cc(=O)c4ccccc4o3)cc2)O1 (centres unmarked) [Example no. 2, N-[4-[(2,4-dioxo-1,3-oxazolidin-5-yl)methyl]phenyl]-4-oxo-4H-1-benzopyran-2-carboxamide]
[1]
  Alkaline phosphatase activity (A405): 0.310 ± 0.008 A405

## O=C1NC(=O)C(Cc2ccc(NC(=O)c3cc(=O)c4c(O)cccc4o3)cc2)S1 (centres unmarked) [Example no. 16, N-[4-[(2,4-dioxo-1,3-thiazolidin-5-yl)methyl]phenyl]-5-hydroxy-4-oxo-4H-1-benzopyran-2-carboxamide]
[2]
  Alkaline phosphatase activity (A405): 0.720 ± 0.033 A405

## O=C(Nc1ccc(CN2CCOCC2)cc1)c1cc(=O)c2ccccc2o1 [Example no. 5, N-[4-[(4-morpholinyl)methyl]phenyl]-4-oxo-4H-1-benzopyran-2-carboxamide]
[1]
  Alkaline phosphatase activity (A405): 0.558 ± 0.040 A405
